# Assay results reported in the supplement of paper PMC8149375.
# Columns and labels:
# Details in all cases: treatment: drug alone; 5 days
# [1] = system: CAKI-1; assay: AUC of dose-response viability curve, drug alone (arbitrary (AUC of normalised viability)); higher = less growth inhibition
# Procedure: (§1)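 Primary HTS: 8 RCC cell lines treated with 8 doses (up to 10 uM) of each library drug alone for 5 days; viability read by CellTiter-Glo and normalised to DMSO. GI50 was fitted with XLfit (4-parameter), AUC is the area under the dose-response curve, and minimum viability is the lowest fraction of DMSO viability across doses.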
# [2] = system: A498; assay: as above
# Procedure: as §1
# [3] = system: UO-31; assay: as above
# Procedure: as §1
# [4] = system: SN12C; assay: as above
# Procedure: as §1
# [5] = system: TK-10; assay: as above
# Procedure: as §1
# [6] = system: 786-O; assay: as above
# Procedure: as §1
# [7] = system: ACHN; assay: as above
# Procedure: as §1
# [8] = system: 769-P; assay: as above
# Procedure: as §1
# [9] = system: CAKI-1; assay: minimum viability across doses, drug alone, relative to DMSO (fraction); higher = less growth inhibition
# Procedure: as §1
# [10] = system: A498; assay: as above
# Procedure: as §1
# [11] = system: UO-31; assay: as above
# Procedure: as §1
# [12] = system: SN12C; assay: as above
# Procedure: as §1
# [13] = system: TK-10; assay: as above
# Procedure: as §1
# [14] = system: 786-O; assay: as above
# Procedure: as §1
# [15] = system: ACHN; assay: as above
# Procedure: as §1
# [16] = system: 769-P; assay: as above
# Procedure: as §1
# [17] = system: CAKI-1; assay: GI50, drug alone; higher = less potent
# Procedure: as §1
# [18] = system: A498; assay: GI50, drug alone; higher = less potent
# Procedure: as §1
# [19] = system: UO-31; assay: GI50, drug alone; higher = less potent
# Procedure: as §1
# [20] = system: SN12C; assay: GI50, drug alone; higher = less potent
# Procedure: as §1
# [21] = system: TK-10; assay: GI50, drug alone; higher = less potent
# Procedure: as §1
# [22] = system: 786-O; assay: GI50, drug alone; higher = less potent
# Procedure: as §1
# [23] = system: ACHN; assay: GI50, drug alone; higher = less potent
# Procedure: as §1
# [24] = system: 769-P; assay: GI50, drug alone; higher = less potent
# Procedure: as §1
"GI50, drug alone [22]","GI50, drug alone [23]",SMILES,AUC of dose-response viability curve [1],AUC of dose-response viability curve [2],AUC of dose-response viability curve [3],AUC of dose-response viability curve [4],AUC of dose-response viability curve [5],AUC of dose-response viability curve [6],AUC of dose-response viability curve [7],AUC of dose-response viability curve [8],minimum viability across doses [9],minimum viability across doses [10],minimum viability across doses [11],minimum viability across doses [12],minimum viability across doses [13],minimum viability across doses [14],minimum viability across doses [15],minimum viability across doses [16],"GI50, drug alone [17]","GI50, drug alone [18]","GI50, drug alone [19]","GI50, drug alone [20]","GI50, drug alone [21]","GI50, drug alone [24]"
> 10000 nM,> 10000 nM,CNC(=O)c1ccc(-c2cnc3ncc(Cc4ccc5ncccc5c4)n3n2)cc1F,3.25,4.54,5.21,3.41,3.14,2.88,3.21,3.5,0.802,0.984,1.21,0.913,0.843,0.652,0.842,0.916,> 10000 nM,> 10000 nM,> 10000 nM,> 10000 nM,> 10000 nM,> 10000 nM
8260 nM,2010 nM,c1ccc2c(-c3cnn4cc(-c5ccc(N6CCNCC6)cc5)cnc34)ccnc2c1,2.96,3.76,6.11,2.88,2.64,3.55,2.68,2.86,0.00218,0.00414,0.00507,0.00261,0.00522,0.0032,0.00139,0.00246,1630 nM,8210 nM,7440 nM,2800 nM,7730 nM,2600 nM
465 nM,2400 nM,Nc1nc(Nc2ccc(S(N)(=O)=O)cc2)nn1C(=O)c1c(F)cccc1F,3.13,3.39,3.19,2.99,2.77,1.8,2.85,3.08,0.0615,0.559,0.00913,0.203,0.573,0.00276,0.0118,0.0485,4580 nM,> 10000 nM,2800 nM,4890 nM,> 10000 nM,> 10000 nM
29.6 nM,63.1 nM,COc1ncc(-c2ccc3nccc(-c4ccnnc4)c3c2)cc1NS(=O)(=O)c1ccc(F)cc1F,1.08,2.32,1.49,1.49,1.23,1.11,1.46,1.4,0.0314,0.283,0.00994,0.0986,0.0455,0.00239,0.0976,0.0336,28.9 nM,242 nM,92 nM,76.6 nM,36.5 nM,84.2 nM
